Here are results for two substances from patent US8895505B2, “Method of treatment of type 2 diabetes” (AdiStem Ltd., priority 2009, dated 2014).

For one data set, the system named is type 2 diabetic patients. The data set can be described thus: TB4-7 trial: randomized, double-blind, placebo-controlled 2-month trial in type 2 diabetic patients. As to conditions: 10 mg s.c. twice a week for 2 months. The class given is in vivo, human. The method, then: The inventors have performed a single-center, randomized, double-blind, placebo-controlled 2-month trial of twice a week s.c. injection of 10 mg of TB4-7 (a peptide having the amino acid sequence LKKTETQ (SEQ ID NO:1)) in type 2 diabetic patients inadequately treated with diet/lifestyle or stable doses of common hypoglycemics for at least 3 months. The results from an interim 2 month report of that trial is provided in this example.
Patients with type 2 diabetes for >/=1 year were entered into 2 strata of hemoglobin A(1c) (HbA(1c)) levels: Stratum 1: 8.0% to 9.9%; and Stratum 2: 10.0% to 12.0%.
All subjects began a 1-month single-blind placebo run-in phase, followed by randomization in a 2:1 ratio of active treatment: placebo, to 2 months of double-blind treatment with either TB4-7 or saline placebo. Concurrent oral agents were continued unchanged throughout the study.
The primary outcome was the change in HbA(1c) from randomization; results of each stratum were analyzed independently. […] 14 subjects entered stratum 1 and 12 entered stratum 2.

A further data set deals with dogs with canine DM. Description: Dog diabetes mellitus trials. Type of data set: in vivo. As to conditions: 10 mg once a week. Here is the method:
A total of 48 dogs took part in the trials. Dogs where put into two groups of 24: one group was injected with the full 10 mg Thymosin beta 4 protein (TB4) once a week; and the other group was injected with 10 mg TB4-7 once a week for four weeks.
Diagnosis criteria of DM and the pre-requisites for study inclusion were:
(1) clinical signs consistent with canine DM, such as polydipsia, polyuria, polyphagia, and weight loss; (2) persistent and 24-hour fasting hyperglycemia (>200 mg/dL) for more than 2 days; (3) persistent glycosuria for more than 2 days; and (4) insulin supplementation required to maintain normal glucose levels.
Glycosylated hemoglobin and blood glucose levels where measured at before every injection and seven days after the last injection.

Where [1] appears, read: Week 0 (before first injection).
[2] abbreviates: Week 4 (seven days after last injection).

No end group written: not given here.

As for LKKTETQ [TB4-7, LKKTETQ], in the data set on type 2 diabetic patients, the adverse events result is given as “No adverse events” and the tolerability result was “well tolerated”.

As to “Thymosin beta 4 (MSDKPDMAEIEKFDKSKLKKTETQEKNPLPSKETIEQEKQAGES; listed as Homo sapiens) [TB4, the full Thymosin beta 4 protein (TB4)]”, the Glucose in the data set on dogs with canine DM (setting [1]) is 298 ± 64 mg/dL; in the data set with dogs with canine DM (Week 1), 310 ± 78 mg/dL; with dogs with canine DM (Week 2), 296 ± 64 mg/dL; in the data set on dogs with canine DM (Week 3) it was 275 ± 72 mg/dL; in the data set on dogs with canine DM (setting [2]), 213 ± 82 mg/dL. The HbA1c is listed as 7.7 ± 2.2% in the data set with dogs with canine DM (setting [1]); 7.8 ± 2.3% in the data set on dogs with canine DM (Week 1); 7.7 ± 2.2% in the data set on dogs with canine DM (Week 2); 7.2 ± 2.6% in the data set with dogs with canine DM (Week 3); 6.1 ± 2.9% in the data set on dogs with canine DM (setting [2]).
